In US11666580B2, “Mechanism of resistance to bet bromodomain inhibitors” (Dana-Farber Cancer Institute, Inc., priority 2015, dated 2023):
Where two headings read alike, the source gives them in different places.

What was measured:
SUM159 cells [1] = assay: Cell cycle analysis of SUM159 cells synchronized with nocodazole in G2/M; assay type: cell-based, human
Description: Cell cycle analysis was performed 72 hr after JQ1 treatment or BRD4 downregulation with doxycycline using propidium iodide (PI) staining. Cells were resuspended in 1 ml of growth medium supplemented with 2 μg/ml PI (Life Technologies) as final concentration. After 60 min at 37° C. in the dark, analysis was performed on a FACS AriaII cytometer (BD Biosciences). The cell cycle was plotted as histogram after excluding doublets. Cell synchronization Procedure. SUM159 cells were treated with nocodazole (200 ng/ml) for 12 h and then cells were tapped to detach from the plates. After washing twice with PBS, cells were replated with or without JQ1 in collagen coated plates. Cells were collected at 0, 3, 6, 12 h time point for FACS and immunoblot analysis.

SUM159 cells [2] = assay: Apoptosis (sub-G1 fraction and Annexin-V staining); assay type: cell-based, human; details: prolonged exposure 48-72 hours, JQ1 500 nM
Description: Cell viability and growth assays (FIGS. 1A-1B, FIGS. 3A-3E, 3G, FIGS. 5D-5F, FIGS. 6C, 6E, 6I, FIG. 7A, FIG. 10D, FIGS. 14A-14C), cycle, apoptosis, and MDR assays were performed in triplicates and repeated 2-3 times. For cell proliferation assays, cells were plated at 500 cells per well in 96-well plates and treated the next day with inhibitors, DMSO or doxycycline (500 ng). Cells were cultured at 37° C. with 5% CO2 in the media described-above, and cell viability was measured using CellTiter-Glo three days after treatments. For cell growth assays, cells were plated at 5000 (SUM159) or 20000 (SUM149) cells per well in 6-well plates and treated the next day with inhibitors. Cells were counted every three days by cell counter. Cellular apoptosis was analyzed with an APC AnnexinV/7ADD Apoptosis Detection kit (BD Pharmingen). AnnexinV/7AAD assessments and cell cycle graphics were generated using FlowJo software V7.6.1 for Windows (Tree Star). Senescence Beta-gal staining was performed using Senescence β-Galactosidase staining kit from Cell signaling. Briefly, after JQ1 treatment (500 nM) for 72 h, SUM159 and MDA-MB-231 cells were fixed by Fixative Solution for 15 min, followed by β-Galactosidase solution incubation overnight at 37° C. The staining was checked under microscope for the development of blue color. […] The cells were analyzed by fluorescent microscope and FACS. […]

[3] = system: TNBC cells (SUM159 and MDA-MB-231); assay: Senescence β-galactosidase staining; assay type: cell-based, human; details: JQ1 500 nM, 72 h
Description: Cell viability and growth assays (FIGS. 1A-1B, FIGS. 3A-3E, 3G, FIGS. 5D-5F, FIGS. 6C, 6E, 6I, FIG. 7A, FIG. 10D, FIGS. 14A-14C), cycle, apoptosis, and MDR assays were performed in triplicates and repeated 2-3 times. For cell proliferation assays, cells were plated at 500 cells per well in 96-well plates and treated the next day with inhibitors, DMSO or doxycycline (500 ng). Cells were cultured at 37° C. with 5% CO2 in the media described-above, and cell viability was measured using CellTiter-Glo three days after treatments. For cell growth assays, cells were plated at 5000 (SUM159) or 20000 (SUM149) cells per well in 6-well plates and treated the next day with inhibitors. Cells were counted every three days by cell counter. Cellular apoptosis was analyzed with an APC AnnexinV/7ADD Apoptosis Detection kit (BD Pharmingen). AnnexinV/7AAD assessments and cell cycle graphics were generated using FlowJo software V7.6.1 for Windows (Tree Star). Senescence Beta-gal staining was performed using Senescence β-Galactosidase staining kit from Cell signaling. Briefly, after JQ1 treatment (500 nM) for 72 h, SUM159 and MDA-MB-231 cells were fixed by Fixative Solution for 15 min, followed by β-Galactosidase solution incubation overnight at 37° C. The staining was checked under microscope for the development of blue color. […] The cells were analyzed by fluorescent microscope and FACS.

[4] = system: tumors derived from SUM159; assay: Xenograft assay, SUM159; assay type: in vivo, mice; details: two weeks of JQ1, 50 mg/kg daily
Description: (§1) For xenograft assays 5-6-weeks old female CrTac:NCr-Foxn1^nu and NOD.Cg-Prkdc^scid Il2rg^tm1Sug/JicTac mice were purchased from Taconic. Tumors were induced by bilateral orthotopic mammary fat pad injection of 1×10^6 cells in 50% Matrigel (BD Biosciences) in DMEM/F12 or Medium 171 (except for IDC50-X cells, which were injected with 3% FBS and 4 mg/ml collagen gel in Medium 171). Animal experiments were conducted following protocol 11-023 approved by the Dana-Farber Cancer Institute Animal Care and Use Committee.

[5] = system: tumors derived from MDA-MB-231; assay: Xenograft assay, MDA-MB-231; assay type: in vivo, mice; details: two weeks of JQ1, 50 mg/kg daily
Description: as §1

[6] = system: patient-derived primary human TNBC xenografts; assay: Xenograft assay, patient-derived TNBC; assay type: in vivo, mice; details: two weeks of JQ1, 50 mg/kg daily
Description: as §1

SUM159 and SUM149 cells = assay: RNA-seq following JQ1 treatment; assay type: cell-based, human; details: different time points following JQ1 500 nM
Description: Quantifying changes in gene expression of SE proximal genes. Genes within 50 kb of SE in SUM159 or SUM149 were identified and filtered for expression status (>1 FPKM expression in any sample), and filtered to remove non poly-adenylated transcripts (e.g. microRNAs). For SUM159, log2 fold changes in gene expression at SE associated genes or all expressed genes was compared at 3, 12, and 24 hours post JQ1 treatment (FIG. 2F). For SUM149, comparisons were made at 12 hours post JQ1 treatment (Extended Data FIG. 3B). The statistical significance of differences between distributions of changes was also assessed using a Welch's two-tailed t test.

[7] = system: xenografts derived from SUM159R cells; assay: Xenograft assay, SUM159R (BBI-resistant SUM159); assay type: in vivo, mice; details: JQ1 for 30 days
Description: as §1

[8] = molecular target: T1, chromatin-bound BRD4 in SUM159 cells (Homo sapiens, UniProt O60885); details: SUM159, JQ1 exposure
Description: Chem-seq was performed essentially as described^27. ChIP-seq: SUM159 and SUM159R cells (4×10^7) were grown in SUM Medium. The media were then removed and replaced with media containing 1% formaldehyde (EM grade; tebu-bio) and crosslinked for 8 min. Crosslinking was quenched by adding glycine to a final concentration of 0.2 M. The cells were washed with ice-cold PBS, harvested in PBS, and the cell pellet was washed with PBS. The nuclear fraction was extracted by first resuspending the pellet in 10 ml of LB1 buffer (50 mM HEPES-KOH [pH 7.5], 140 mM NaCl, 1mMEDTA, 10% glycerol, 0.5% NP-40 or Igepal CA-630, and 0.25% Triton X-100) for 10 min at 4° C. Cells were pelleted, resuspended in 10 ml of LB2 buffer (10 mM Tris-HCL [pH 8.0], 200 mM NaCl, 1 mM EDTA, and 0.5 mM EGTA), and mixed for 5 min. Cells were pelleted and resuspended in 300 μl of LB3 buffer (10 mM Tris-HCl [pH 8], 100 mM NaCl, 1 mM EDTA, 0.5 mM EGTA, 0.1% Na-deoxycholate, and 0.5% N-lauroylsarcosine) and sonicated in a covaris sonicator for 10 min. A total of 30 μl of 10% Triton X-100 was added, and lysate was centrifuged for 10 min at 20,000 rcf to purify the debris. The supernatant was then incubated with 100 μl of magnetic beads (Life Technologies) prebound with 20 μg BRD4 antibody (Bethyl, A301-985A), and immunoprecipitation (IP) was conducted overnight in the cold room. […]

[9] = molecular target: T1, chromatin-bound BRD4 in SUM159 cells
Description: Chem-seq was performed essentially as described^27. ChIP-seq: SUM159 and SUM159R cells (4×10^7) were grown in SUM Medium. The media were then removed and replaced with media containing 1% formaldehyde (EM grade; tebu-bio) and crosslinked for 8 min. Crosslinking was quenched by adding glycine to a final concentration of 0.2 M. The cells were washed with ice-cold PBS, harvested in PBS, and the cell pellet was washed with PBS. The nuclear fraction was extracted by first resuspending the pellet in 10 ml of LB1 buffer (50 mM HEPES-KOH [pH 7.5], 140 mM NaCl, 1mMEDTA, 10% glycerol, 0.5% NP-40 or Igepal CA-630, and 0.25% Triton X-100) for 10 min at 4° C. Cells were pelleted, resuspended in 10 ml of LB2 buffer (10 mM Tris-HCL [pH 8.0], 200 mM NaCl, 1 mM EDTA, and 0.5 mM EGTA), and mixed for 5 min. Cells were pelleted and resuspended in 300 μl of LB3 buffer (10 mM Tris-HCl [pH 8], 100 mM NaCl, 1 mM EDTA, 0.5 mM EGTA, 0.1% Na-deoxycholate, and 0.5% N-lauroylsarcosine) and sonicated in a covaris sonicator for 10 min. A total of 30 μl of 10% Triton X-100 was added, and lysate was centrifuged for 10 min at 20,000 rcf to purify the debris. The supernatant was then incubated with 100 μl of magnetic beads (Life Technologies) prebound with 20 μg BRD4 antibody (Bethyl, A301-985A), and immunoprecipitation (IP) was conducted overnight in the cold room. The beads were washed ten times in 1 ml of RIPA buffer and twice in 100 mM ammonium hydrogen carbonate (AMBIC) solution. DNA was eluted in elution buffer (50 mM Tris-HCl pH 8, 10 mM EDTA, and 1% SDS). Cross-links were reversed overnight at 65° C. RNA and protein were digested with 0.2 mg/mL RNase A for 2 hr followed by 0.2 mg/mL Proteinase K for 1 hr. DNA was purified with phenol chloroform extraction and ethanol precipitation. Libraries for Illumina sequencing were prepared following the Rubicon ThruPLEX-FD kit for 10-12 cycles.

[10] = molecular target: T2, BRD4-MED1 association in SUM159 cells (Homo sapiens, UniProt O60885); details: sensitive cells
Description: Cells were lysed five days after transfection with siRNAs in RIPA buffer. Proteins were resolved in SDS-polyacrylamide gels (4%-12%) and transferred to PVDF membranes by using a Tris-glycine buffer system. Membranes were blocked with 5% milk powder in 0.1% Tween20 in PBS (PBS-T) for 1 hr at room temperature followed by incubation with primary antibodies at 1:1000 dilution in 2.5% milk PBS-T. For immunoprecipitation, nuclear extracts were prepared as follow: 10×10^6 cells were resuspended in 5 ml Buffer A: 10 mM Tris pH 7.9, 1.5 mM MgCl2, 10 mM KCl, 0.05% NP-40, 1 mM DTT, and protease and phosphatase inhibitors. Cells were incubated on ice for 15 min and gently vortexed every 5 min. After centrifugation at 2,000 g for 5 min, pellets were suspended in 0.3 ml buffer B (20 mM Tris pH 7.9, 25% glycerol, 0.42 M NaCl, 1.5 mM MgCl2, 1 mM KCl, 0.5% NP40, 0.2 mM EDTA, 1 mM DTT, and protease and phosphatase inhibitors) and incubated for 5 min on ice. After centrifugation of the lysates at 14 g for 10 min at 4° C., supernatant was diluted with 0.6 ml buffer A, and added NP-40 to final 0.5% and treated with DNase I. The samples were then incubated at 4° C. overnight with BRD4 or Flag antibodies at 1:100 dilution and immunoprecipitates were collected on Dynabeads Protein G for 2 hr. […]

[11] = molecular target: T2, BRD4-MED1 association in SUM159 cells; assay: BRD4 immunoprecipitation followed by immunoblot for MED1, resistant cells; assay type: cell-based; parameters: Observations from RIME data were pursued by BRD4 immunoprecipitation followed by immunoblot analysis for MED1 and BRD3; endogenous in cells; host or cells: SUM159 and SUM159R cells (nuclear extracts); details: resistant cells
Description: Cells were lysed five days after transfection with siRNAs in RIPA buffer. Proteins were resolved in SDS-polyacrylamide gels (4%-12%) and transferred to PVDF membranes by using a Tris-glycine buffer system. […] Cells were incubated on ice for 15 min and gently vortexed every 5 min. […] After centrifugation of the lysates at 14 g for 10 min at 4° C., supernatant was diluted with 0.6 ml buffer A, and added NP-40 to final 0.5% and treated with DNase I. The samples were then incubated at 4° C. overnight with BRD4 or Flag antibodies at 1:100 dilution and immunoprecipitates were collected on Dynabeads Protein G for 2 hr. Beads were washed with buffer B containing 150 mM NaCl and 0.5% NP-40 three times and then resuspended in gel loading buffer. Immunoblotting and immunoprecipitation experiments were repeated 2-3 times.

For `Cc1sc2c(c1C)C(c1ccc(Cl)cc1)=N[C@@H](CC(=O)OC(C)(C)C)c1nnc(C)n1-2` [JQ1], the “Cell cycle after release from G2/M” value (SUM159 cells [1]; JQ1 (500 nM) added 3 hours after release) was “less pronounced effects”, the “Cell cycle after release from G2/M” value (SUM159 cells [1]; JQ1 (500 nM) administered 1 hour before release) was “arrested in early G1 with high cyclin D1 levels” and the “Apoptotic response (sub-G1 fraction, Annexin-V staining)” value (SUM159 cells [2]) was “elicited an apoptotic response”. For the same compound, the “Acidic β-galactosidase activity (senescence)” value [3] was “markedly increased acidic β-galactosidase activity”, the Tumor growth [4] was “efficiently inhibited the growth of established tumors” and the Tumor growth [5] was “efficiently inhibited the growth of established tumors”. For the same compound, the Tumor growth [6] was “efficiently inhibited the growth of established tumors”, the “Expression of super-enhancer associated genes versus all active genes” value (SUM159 and SUM149 cells) was “significantly more likely to be down-regulated” and the “Tumor response to JQ1 treatment” value [7] was “not responsive”. The “BRD4 occupancy at Chem-seq-defined SE regions” value [8] was “depleted of BRD4”, the “BRD4 occupancy at Chem-seq-defined SE regions” value ([9]; SUM159R, JQ1 exposure) was “retain chromatin-bound BRD4” and the “Displacement of BRD4 from chromatin” value ([9]; SUM159R, following JQ1 treatment) was “not displaced from chromatin”. The “Effect on H3K27ac or global transcription” value ([9]; resistant cells) was “fails to influence”, the “Association of BRD4 with MED1” value [10] was “efficiently displaced BRD4 from MED1” and the “Association of BRD4 with MED1” value [11] was “had no such effect”.
